The text below walks through data of patent publication US12115171B2, “Combination therapies and methods of use thereof for treating cancer” (Massachusetts Institute of Technology, priority 2014, dated 2024).

Read-outs that look alike come from different tables or passages of the source.

Data set [1] relates to several tumor cell lines, including those that express multidrug-resistant protein 1 (MDR1). The note with it: cited from earlier work.
In data set [2] the test system is cell lines, representative of both solid and hematological tumors. As to conditions: cited from earlier work.
Data set [3] relates to C4-2. In words: Cell-Titer Glo viability, C4-2. The class given is cell-based, human. The note with it: for effect on cell killing by 10 μM Abiraterone: 10, 20 and 40 μM SB203580 (FIG. 13B); for relative levels of proliferation: 5 nM BI2536, 10 μM abiraterone, alone or in combination, FBS, 5 days post-administration (FIG. 4). As for the experimental part:
(§1) Twenty four hours later, the indicated concentration of BI2536 and R1881 were added, representing time zero. Viability of the prostate cancer cells was assessed using Cell-Titer Glo™ according to the manufacturer's instructions.
Viability was measured for the subsequent five days using Cell-Titer Glo™ according to the manufacturer's instructions.
(§2) Cell viability was assessed after 5 days using Cell-Titer Glo™ according to the manufacturer's instructions.
(§3) Cell viability was assessed after 4 days using Cell-Titer Glo™ according to the manufacturer's instructions.

Data set [4] relates to LNCaP. Kind of data set: Cell-Titer Glo viability, LNCaP. The note with it: for effect on cell killing by 10 μM Abiraterone: 10, 20 and 40 μM SB203580 (FIG. 13B). Format: cell-based, human. Here is the method: as §1, §2, §3
Experiments were conducted to investigate the role of the p38MAPK-MK2 pathway in prostate cancer, Western blotting was used to investigate up-regulation of MK3 and MK5 protein levels in LNCaP cells after MK2 knock down using shRNA.

Data set [5] concerns cell mitosis. As to conditions: read-out: EC50 inhibition of cell mitosis; cited from earlier work.
For data set [6], the system named is Cdc25C-T96 phosphorylation. The note with it: read-out: EC50 Cdc25C-T96 phosphorylation; cited from earlier work.
The subject of data set [7] is 22 RV1. In words: Cell-Titer Glo viability, 22 RV1. The class given is cell-based. The note with it: for effect on cell killing by 10 μM Abiraterone: 10, 20 and 40 μM SB203580 (FIG. 13B). Here is the method: Cell viability of PCa cell lines to increasing doses (10, 20 and 40 μM) of the p38MAPK inhibitor SB203580, as measured using Cell Titer Glo (FIG. 13A).
The conditions of data set [8]: cited from earlier work.
The test system of data set [9] is cell culture. As to conditions: cited from earlier work.
Data set [10] concerns xenograft tumor models. As to conditions: under proper dose scheduling; cited from earlier work.
Data set [11] concerns multiple human carcinoma xenografts including HCT 116, NCI-H460, and taxane-resistant CXB1 colon carcinoma. As to conditions: ~25 mg/kg/day; cited from earlier work.
The conditions of data set [12]: cited from earlier work. This is another data set of the same source.
The conditions of data set [13]: in combination with afatinib; cited from earlier work.
Data set [14] concerns panel of >50 other kinases. The note with it: concentrations up to 10 μM, in vitro; cited from earlier work.
For data set [15], the system named is BT20 cells. The note with it: 200 mg/kg; cited from earlier work.
For data set [16], the system named is Bel-7402, MCF-7, and MIA-PaCa cells. As to conditions: 250 mg/kg; cited from earlier work.
The conditions of data set [17]: cited from earlier work. The source holds these as a separate data set.
Data set [18] addresses several tyrosine kinases and cyclin-dependent kinase 1 (Cdk1). As to conditions: cited from earlier work.
In data set [19] the test system is A549. As to conditions: twice-weekly; cited from earlier work.
The conditions of data set [20]: cited from earlier work. The source holds these as a separate data set.
For data set [21] the following is noted: cited from earlier work. This is another data set of the same source.
In data set [22] the test system is BxPC-3. As to conditions: twice-weekly; cited from earlier work.
The conditions of data set [23]: other studies; cited from earlier work.
In data set [24] the test system is PSA expression. In words: PSA expression by qPCR in C4-2 CRPC cells. The class given is cell-based, human. As to conditions: 10 μM abiraterone, 5 nM BI2536, alone or combined; 24 hours; FBS (FIG. 8). The text has this: RNA was isolated for analysis by qPCR.
On the technique in general: Quantitative PCR measures a nucleic acid by following its amplification.

For data set [25], the system named is HCT 116 xenografts. As to conditions: cited from earlier work.
For data set [26] the following is noted: 24 to 48 mg/m^2 for 5 consecutive days every 4 weeks; cited from earlier work.
The conditions of data set [27]: cited from earlier work. This is another data set of the same source.
For data set [28] the following is noted: cited from earlier work. This is another data set of the same source.
The target in data set [29] is Plk1 (Homo sapiens, UniProt P53350). The note with it: cited from earlier work.
Data set [30] deals with various human tumor cell lines. As to conditions: cited from earlier work.
Data set [31] has as its system mouse xenograft models. As to conditions: 10 mg/kg and 20 mg/kg on days 1 and 28; cited from earlier work.
Data set [32] deals with HT-29 human colorectal tumors. As to conditions: cited from earlier work.
Where [33] appears, read: increasing concentrations of BI2536, csFBS (FIG. 3A).

Chain of Plk1 (P53350 whole entry): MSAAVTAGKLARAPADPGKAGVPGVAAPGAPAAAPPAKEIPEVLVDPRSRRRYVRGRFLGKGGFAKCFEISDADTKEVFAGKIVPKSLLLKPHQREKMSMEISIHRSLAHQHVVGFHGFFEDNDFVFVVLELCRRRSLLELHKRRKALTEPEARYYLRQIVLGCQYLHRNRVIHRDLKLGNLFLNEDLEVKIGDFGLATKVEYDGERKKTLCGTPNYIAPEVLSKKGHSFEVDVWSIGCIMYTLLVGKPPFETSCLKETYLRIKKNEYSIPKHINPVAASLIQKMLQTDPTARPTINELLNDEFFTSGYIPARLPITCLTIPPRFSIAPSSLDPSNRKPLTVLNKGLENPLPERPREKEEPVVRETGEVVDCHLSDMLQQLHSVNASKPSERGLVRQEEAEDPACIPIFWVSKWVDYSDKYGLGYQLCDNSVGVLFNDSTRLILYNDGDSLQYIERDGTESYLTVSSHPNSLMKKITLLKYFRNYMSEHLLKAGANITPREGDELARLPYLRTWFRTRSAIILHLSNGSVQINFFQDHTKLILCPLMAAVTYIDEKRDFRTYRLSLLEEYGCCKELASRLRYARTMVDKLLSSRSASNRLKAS

In the case of `COc1cc(C(=O)NC2CCN(C)CC2)c(F)cc1Nc1ncc2c(n1)N(C1CCCC1)CC(F)(F)C(=O)N2C` [TAK-960], the “activity in tumor cell lines” value in data set [1] is reported as “has shown activity”.

As for `CN1CCN(c2ccc(OC(F)(F)F)c(Nc3ncc4c(n3)-c3c(c(C(N)=O)nn3CCO)CC4)c2)CC1` [NMS 1286937], in data set [2], the “potency in proliferation assays” value is “low nanomolar activity”.

Regarding `C[C@]1(O)CC[C@H]2[C@@H]3CCC4=CC(=O)CCC4=C3C=C[C@@]21C` [R1881], the “proliferation over time in the presence of BI2536 and synthetic androgen” value was “somewhat rescued” in [3] (5 nM BI2536, csFBS (FIG. 3B)) and “somewhat rescued” in data set [4] (5 nM BI2536, csFBS (FIG. 3B)). Also, the “viability in the presence of BI2536 and synthetic androgen” value in data set [3] (csFBS (FIG. 3A)) and in data set [4] (csFBS (FIG. 3A)) was “somewhat rescued” throughout.

In general, EC50 refers to the concentration at which the effect is half-maximal. For `Cc1ncc(CCCN(C)C)cc1Nc1ncc2c(n1)-c1ccc(C(F)(F)F)cc1NC(=S)C2` [MLN0905], the EC50 in [5] was 9 nM; in [6], 29 nM.

With `C[S+]([O-])c1ccc(-c2nc(-c3ccncc3)c(-c3ccc(F)cc3)[nH]2)cc1` (centres unmarked) [SB203580], the “cell death, p38MAPK inhibition alone” value was “small amounts of cell death” in data set [3] (10, 20 and 40 μM (FIG. 13A)); “small amounts of cell death” in data set [4] (10, 20 and 40 μM (FIG. 13A)); “small amounts of cell death” in [7] (10, 20 and 40 μM (FIG. 13A)). Besides, the “effect on cell killing by 10 μM Abiraterone” value in [3] is on record as “additive”; in data set [3] (listed as p38MAPK inhibitor), “modestly enhanced”; in [4] it was “additive”; in data set [4] (listed as p38MAPK inhibitor), “modestly enhanced”; in data set [7] it was “additive”; in data set [7] (listed as p38MAPK inhibitor), “modestly enhanced”.

On to `C[C@@H](Oc1cc(-n2cnc3ccc(CN4CCN(C)CC4)cc32)sc1C(N)=O)c1ccccc1C(F)(F)F` [GSK461364], for which, in data set [8] (in vivo), the DLTs entry was “grade 4 neutropenia, sepsis, and pulmonary embolism”; the “incidence of venous thrombotic emboli” value was 20%. Moreover, in data set [8] (intravenously, schedule A (days 1, 8, and 15 of 28-day cycle)), the “final recommended phase II dose” value is given as 225 mg. Besides, the “nature of cell culture growth inhibition” value in data set [9] is “cytostatic or cytotoxic”. In addition, in data set [10], the “effect in xenograft tumor models” value is reported as “tumor regression”.

For the compound `CC[C@@H]1C(=O)N(C)c2cnc(Nc3ccc(C(=O)N[C@H]4CC[C@H](N5CCN(CC6CC6)CC5)CC4)cc3OC)nc2N1C(C)C` [BI6727], the growth of xenografts result in [11] is recorded as “significantly inhibits the growth”. Besides, in [12] (i.v. once every 3 weeks, 12-450 mg), the DLTs entry was “neutropenia, thrombocytopenia, and febrile neutropenia”. Also, the MTD in data set [12] (i.v. once every 3 weeks) was 400 mg; in data set [13] it was 300 mg. Besides, the “recommended dose for further development based on overall tolerability” value in data set [12] (in vivo) is on record as 300 mg. Also, the “inhibitory activity against a panel of >50 other kinases” value in data set [14] was “no inhibitory activity”.

What is called IC50 is the point on the concentration scale where inhibition reaches its midpoint. `COc1cc(OC)c(/C=C/S(=O)(=O)Cc2ccc(OC)c(NCC(=O)[O-])c2)c(OC)c1.[Na+]` [ON 01910]: the tumor growth result in [15] is recorded as “inhibition of tumor growth”; in data set [16], “inhibited tumor growth”. For the same compound, the DLT result in data set [17] (at the MTD) is on record as “Grade 3 abdominal pain”. In addition, the MTD in data set [17] (i.v. days 1, 4, 8, 11, 15, and 18 in 28-day cycles) was 3,120 mg. Further, the IC50 in data set [18] is 18 to 260 nM.

Usually T/C stands for the result in the treated group divided by that in the control group, in per cent. Regarding `CC[C@@H]1C(=O)N(C)c2cnc(Nc3ccc(C(=O)NC4CCN(C)CC4)cc3OC)nc2N1C1CCCC1` [BI2536], in data set [3], the “relative levels of proliferation” value is “reduced over time”. Moreover, the proliferation over time entry was “reduced” in data set [3] (5 nM BI2536, csFBS (FIG. 3B)) and “reduced” in data set [4] (5 nM BI2536, csFBS (FIG. 3B)). For the same compound, the viability entry in [3] (setting [33]) and in [4] (setting [33]) was “reduced” throughout. In addition, the T/C was 14% in data set [19], 5% in [22], 15% in data set [25] (50 mg/kg once per week) and 0.3% in data set [25] (50 mg/kg twice per week). For the same compound, the maximum tolerated dose in data set [20] (day 1 schedule) is 350 mg; in data set [20] (days 1+8 schedule), 200 mg. In data set [21] (200 mg combined with standard-dose pemetrexed), the safety profile entry was “acceptable safety profile”. Further, in data set [21] (325 mg with pemetrexed), the “dose-limiting toxicities (DLT)” value was “grade 3 pruritus and rash; grade 4 neutropenia”. Further, the “maximum tolerated dose (MTD)” value in data set [21] (in combination with 500 mg/m^2 pemetrexed, day 1 every 3 weeks, intravenous) was 300 mg. In addition, the MTD in data set [23] is 50 to 70 mg. Besides, in [24], the PSA expression entry is on record as “did not suppress PSA expression”.

Take `COc1ccc(S(=O)(=O)N(C(C)=O)c2ccccc2/C=C/c2cc[n+]([O-])cc2)cc1` [HMN-214]: the DLTs entry in data set [26] is “prolonged neutropenia, febrile neutropenia, neutropenic sepsis, electrolyte disturbance, neuropathy, and myalgia”. For the same compound, the dose-limiting toxicities entry in data set [27] (9.9 mg/m^2/d) was “severe myalgia/bone pain syndrome and hyperglycemia”. The “maximum tolerated dose and recommended dose” value in data set [27] (continuous 21-day dosing schedule every 28 days) was 8.0 mg/m^2/d.

For the compound `CC(=O)O[C@@]12CO[C@@H]1C[C@H](O)[C@@]1(C)C(=O)[C@H](O)C3=C(C)[C@@H](OC(=O)[C@H](O)[C@@H](NC(=O)OC(C)(C)C)c4ccccc4)C[C@@](O)([C@@H](OC(=O)c4ccccc4)[C@H]21)C3(C)C` [Docetaxel, docetaxel], the “synergy with Abiraterone (% viability)” value in data set [3] (5 nM docetaxel, increasing abiraterone, 4 days, csFBS (FIG. 7C)) is “did not synergize with Abiraterone”; in data set [4] (5 nM docetaxel, increasing abiraterone, 4 days, FBS (FIG. 7A)) it was “did not synergize with Abiraterone”; in data set [7] (5 nM docetaxel, increasing abiraterone, 4 days, csFBS (FIG. 7B)) it was “did not synergize with Abiraterone”.

Take `CC(=O)O[C@H]1CC[C@@]2(C)C(=CC[C@@H]3[C@@H]2CC[C@]2(C)C(c4cccnc4)=CC[C@@H]32)C1` [Abiraterone acetate, abiraterone acetate]: the solubility in water result in data set [28] was “practically insoluble in water”.

`C[C@]12CC[C@H](O)CC1=CC[C@@H]1[C@@H]2CC[C@]2(C)C(c3cccnc3)=CC[C@@H]12` [abiraterone]: in data set [3], the “relative levels of proliferation” value is recorded as “reduced over time”. Further, the “sensitivity to Abiraterone in the absence of BI2536” value was “relatively resistant” in data set [3] (five days, csFBS) and “relatively resistant” in [7] (five days, csFBS). In addition, the PSA expression result in data set [24] is given as “substantially decreased”.

With `COc1ccc(S(=O)(=O)Nc2ccccc2/C=C/c2cc[n+]([O-])cc2)cc1` [HMN-176], the “direct inhibition of the enzymatic activity of Plk1” value in data set [29] is recorded as “does not directly inhibit the enzymatic activity of Plk1”. Also, the cytotoxicity result in data set [30] was “potent cytotoxicity”. Further, the antitumor activity result in [31] is given as “potent antitumor activity”.

Take `COc1cc(C(=O)NC2CCN(C)CC2)ccc1Nc1ncc2c(n1)N(C1CCCC1)CC(F)(F)C(=O)N2C` [RO3280]: in data set [32] (dosed more frequently), the antitumor activity result is recorded as “complete tumor regression”. Also, the tumor growth inhibition in data set [32] (once weekly at 40 mg/kg) is reported as 72%.
